“Also recorded” adds a separate entry of the source. Like-named read-outs stand apart in the source and are kept apart here.
What was measured:
Assay type in all cases: cell-based
[1] = molecular target: T1, human LAT3 (Homo sapiens, UniProt O75387); test: Inhibition of 14C-leucine uptake by Xenopus oocytes injected with human LAT3 cRNA
T1 construct: An expression plasmid vector pSPORT1 containing cDNA of human LAT3 was cleaved by a restriction enzyme NotI, and cRNA; expressed in transfected cells; host or cells: Xenopus laevis oocytes injected with cRNA
T1 sequence (O75387 1-559): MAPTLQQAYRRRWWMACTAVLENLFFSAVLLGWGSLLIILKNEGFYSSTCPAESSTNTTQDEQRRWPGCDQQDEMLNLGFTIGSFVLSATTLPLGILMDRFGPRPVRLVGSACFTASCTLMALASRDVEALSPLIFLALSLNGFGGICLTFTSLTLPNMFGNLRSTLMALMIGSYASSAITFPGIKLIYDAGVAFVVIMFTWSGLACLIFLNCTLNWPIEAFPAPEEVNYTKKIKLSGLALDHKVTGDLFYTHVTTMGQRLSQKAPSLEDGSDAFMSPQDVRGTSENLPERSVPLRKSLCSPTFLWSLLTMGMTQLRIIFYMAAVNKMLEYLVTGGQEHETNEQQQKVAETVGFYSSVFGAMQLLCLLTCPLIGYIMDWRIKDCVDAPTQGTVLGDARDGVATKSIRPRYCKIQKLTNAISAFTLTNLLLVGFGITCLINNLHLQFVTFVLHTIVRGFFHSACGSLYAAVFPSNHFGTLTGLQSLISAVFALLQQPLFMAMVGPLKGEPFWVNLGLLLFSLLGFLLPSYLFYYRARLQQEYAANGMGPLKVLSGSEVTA

[2] = molecular target: T1, human LAT3; test: Uptake of radiolabeled amino acids by Xenopus oocytes injected with human LAT3 cRNA; settings: 14C-labeled substrate in place of 14C-leucine, Na+-free uptake solution, 10 minutes
Protocol: The substrate uptake by the injected oocytes using leucine as a substrate was carried out according to the method described by Kanai et al. (Kanai and Hediger, Nature, Vol. 360, 467-471 (1992)), as follows. The oocytes was cultured for 30 minutes in the Na^+-free uptake solution (100 mM of choline chloride, 2 mM of potassium chloride, 1.8 mM of calcium chloride, 1 mM of magnesium chloride, 5 mM of HEPES, pH 7.4) using ^14C-leucine (100 μM) as a substrate, and uptake rate of the substrate was measured by counting radioactivity in the cell.
The oocytes was injected with 25 ng of human LAT3 gene cRNA to be expressed thereby, and cultured for 3 days.
The experiment of the leucine uptake was carried out as follows according to the above described method in Example 1 (1). That is, the oocytes injected with the cRNA of the human LAT3 gene or water as a control were cultured for 10 minutes in Na^+-free uptake solution containing ^14C-leucine (100 μM) (refer to Example 1 (1)), and measured uptake of radioactivity into the cells.
The leucine uptake was conducted at the leucin concentrations of 1, 3, 10, 30, 60, 100, 200, 400, 1000, 2000 and 3000 μM using the oocytes injected with cRNA of the human LAT3 gene according to the above-described method in Example 3 (1). […] In addition, it was clarified that the leucine transport mediated by LAT3 is composed of high affinity component and low affinity component (FIG. 6, inserted figure).
An uptake experiment of various amino acids and amino acid analogs was carried out using the oocytes injected with cRNA of the human LAT3 gene according to the above-described method in Example 3 (1), provided that various radiolabeled amino acids were utilized in place of the ^14C-leucine.

[3] = molecular target: T2, mouse LAT4 (Mus musculus, UniProt Q8CGA3, K402E/P237S); test: Uptake of radiolabeled amino acids by Xenopus oocytes injected with mouse LAT4 cRNA; settings: 14C-labeled substrate in place of 14C-leucine
T2 construct: An expression plasmid vector pcDNA 3.1(+) containing cDNA of mouse LAT4 was cleaved by a restriction enzyme XbaI; expressed in transfected cells; host or cells: Xenopus laevis oocytes injected with cRNA (from pcDNA3.1(+), IMAGE clone 2235970)
T2 sequence (Q8CGA3 whole entry P237S/K402E): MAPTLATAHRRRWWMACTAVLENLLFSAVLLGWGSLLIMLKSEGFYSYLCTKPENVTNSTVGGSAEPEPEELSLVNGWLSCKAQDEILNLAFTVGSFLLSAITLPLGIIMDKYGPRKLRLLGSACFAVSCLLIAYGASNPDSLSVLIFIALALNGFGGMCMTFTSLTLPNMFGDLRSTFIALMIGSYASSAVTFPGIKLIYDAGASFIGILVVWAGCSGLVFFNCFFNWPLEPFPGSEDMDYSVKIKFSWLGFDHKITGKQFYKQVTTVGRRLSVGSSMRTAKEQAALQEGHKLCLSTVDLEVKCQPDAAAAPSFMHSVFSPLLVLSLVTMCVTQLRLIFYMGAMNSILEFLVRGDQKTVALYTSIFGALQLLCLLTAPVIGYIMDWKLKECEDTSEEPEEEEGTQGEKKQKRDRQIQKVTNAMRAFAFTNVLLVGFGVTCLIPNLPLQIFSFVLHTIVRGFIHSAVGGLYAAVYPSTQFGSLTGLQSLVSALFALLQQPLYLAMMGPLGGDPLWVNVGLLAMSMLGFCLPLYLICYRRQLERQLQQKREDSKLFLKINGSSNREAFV
Protocol: The oocytes was injected with 25 ng of cRNA of the mouse LAT4 gene to be expressed thereby, and cultured for 3 days.
An experiment of leucine uptake was carried out as follows according to the above-described method in Example 3 (1). That is, the oocytes injected with cRNA of the mouse LAT4 gene or water as a control were cultured for 10 minutes in the Na^+-free uptake solution containing […] (100 μM) (refer to Example 3 (1)), and measured the uptake of radioactivity into the cells.
The leucine uptake was conducted at the leucin concentrations of 0.01, 0.03, 0.1, 0.3, 1, 3 and 10 mM, using the oocytes injected with cRNA of the mouse LAT4 gene according to the above-described method in Example 3 (1). […] In addition, it was clarified that the leucine transport mediated by LAT4 is composed of a high affinity component and a low affinity component, just like the leucin uptake mediated by LAT3.
An uptake experiment of various amino acids and amino acid analogs was carried out using the oocytes injected with cRNA of the mouse LAT4 gene according to the above-described method in Example 3 (1). In this regard, in place of ^14C-leucine, various radiolabeled amino acids were utilized.

[4] = molecular target: T2, mouse LAT4; test: Inhibition of 14C-leucine uptake by oocytes injected with mouse LAT4 cRNA; settings: 14C-leucine 100 μM, 10 mM unlabeled compound, Na+-free uptake solution, Xenopus oocytes
Protocol: In this regard, uptake of ^14C-leucine (100 μM) into the oocytes was measured in the presence or the absence of 10 mM of various compounds (unlabeled) in the Na^+-free uptake solution.

[5] = molecular target: T1, human LAT3; test: Influence of N-ethylmaleimide on leucine uptake by oocytes expressing human LAT3; settings: pretreatment with 5 mM for 15 minutes; 14C-L-leucine 100 μM, 10 minutes
Protocol: Each of the oocytes injected with cRNA of the human LAT3 gene, injected with cRNA of the human LAT3 gene and cRNA of 4F2hc gene, or injected with water as a control was cultured for 10 minutes in the Na^+-free uptake solution containing ^14C-L-leucine (100 μM) (refer to Example 3 (2)), and uptake of radioactivity into the oocytes was measured according to the method described in Example 3 (1). In this regard, influences of pretreatment with 5 mM of N-ethylmaleimide for 15 minutes, and the presence or absence of 5 mM of N-ethylmaleimide in the uptake solution on the ^14C-leucine uptake were investigated.

[6] = system: LAT1; test: Influence of N-ethylmaleimide on leucine uptake mediated by LAT1; settings: 5 mM; 14C-L-leucine 100 μM, 10 minutes
[7] = 14C-leucine 100 μM, 10 mM unlabeled compound, Na+-free uptake solution, 10 minutes, Xenopus oocytes

| Compound | inhibitory effect on the LAT3 mediated 14C-leucine uptake [1, 7] | inhibitory effect on the LAT4 mediated 14C-leucine uptake [4] | other results |
| --- | --- | --- | --- |
| CC(C)C[C@@H](N)C(=O)O [D-leucine] | relatively strong inhibitory effect | relatively strong inhibitory effect | uptake of radiolabeled substrate into oocytes expressing human LAT3 [2]: significant uptake; uptake of radiolabeled substrate into oocytes expressing mouse LAT4 [3]: significant uptake |
| N[C@H](Cc1c[nH]cn1)C(=O)O [D-histidine] | – | relatively strong inhibitory effect | – |
| O=C(O)[C@@H]1CCCN1 [L-proline] | did not affect | did not affect | uptake of radiolabeled substrate into oocytes expressing human LAT3 [2]: small but significant uptake |
| N[C@H](CO)Cc1ccccc1 [phenylalaninol, L-phenylalaninol] | relatively strong inhibitory effects; also recorded: strongly inhibited | – | – |
| CC(C)CCN [Isopentylamine, isopentylamine] | significant inhibitory activity | – | – |
| CSCC[C@@H](N)C(=O)O [D-methionine] | – | relatively strong inhibitory effect | – |
| NCCCC[C@H](N)C(=O)O [lysine] | did not affect | did not affect | – |
| CSCC[C@H](N)C(=O)O [L-methionine] | – | strong cis-inhibitory effect | inhibitory effect on the LAT3 mediated 14C-leucine uptake [1]: strong cis-inhibitory effect; uptake of radiolabeled substrate into oocytes expressing human LAT3 [2]: small but significant uptake; uptake of radiolabeled substrate into oocytes expressing mouse LAT4 [3]: a large amount of uptake |
| N[C@@H](CCC(=O)O)C(=O)O [glutamic acid] | did not affect | did not affect | – |
| CC[C@H](C)[C@H](N)C(=O)O [L-isoleucine] | strong cis-inhibitory effect | strong cis-inhibitory effect | uptake of radiolabeled substrate into oocytes expressing human LAT3 [2]: a large amount of uptake; uptake of radiolabeled substrate into oocytes expressing mouse LAT4 [3]: a large amount of uptake |
| CC(C)CC(C)N (centres unmarked) [1,3-dimethyl-n-butylamine] | significant inhibitory activity | – | – |
| N=C(N)NCCC[C@H](N)C(=O)O [arginine] | did not affect | did not affect | – |
| NCCc1ccccc1 [phenylethylamine, 2-phenylethylamine] | significant inhibitory activity | – | – |
| N[C@@H](Cc1ccccc1)C(=O)O [L-phenylalanine] | strong cis-inhibitory effect | strong cis-inhibitory effect | uptake of radiolabeled substrate into oocytes expressing human LAT3 [2]: a large amount of uptake; uptake of radiolabeled substrate into oocytes expressing mouse LAT4 [3]: a large amount of uptake |
| C[C@@H]1Cc2c(Cl)cc(C(=O)N[C@@H](Cc3ccccc3)C(=O)O)c(O)c2C(=O)O1 [ochratoxin A] | strong inhibitory effect; also recorded: strongly inhibited | – | – |
| CC(C)[C@H](N)C(=O)O [L-valine] | strong cis-inhibitory effect | strong cis-inhibitory effect | uptake of radiolabeled substrate into oocytes expressing human LAT3 [2]: a large amount of uptake; uptake of radiolabeled substrate into oocytes expressing mouse LAT4 [3]: a large amount of uptake |
| CCN1C(=O)C=CC1=O [N-ethylmaleimide] | – | – | effect on 14C-L-leucine uptake mediated by human LAT3 [5]: completely abolished; also recorded: inhibited; effect on 14C-L-leucine uptake mediated by LAT1 [6]: did not affect |
| NC1(C(=O)O)CC2CCC1C2 (centres unmarked) [BCH, 2-aminobicyclo-(2,2,1)-heptane-2-carboxylic acid] | strong inhibition | strong inhibition | – |

More lines, main results first:

| inhibitory effect on the LAT3 mediated 14C-leucine uptake [1, 7] | inhibitory effect on the LAT4 mediated 14C-leucine uptake [4] | Compound | other results |
| --- | --- | --- | --- |
| weak but significant inhibitory effects | – | O=C(O)c1ccccc1O [salicylic acid] | – |
| strong inhibitory effect | – | COc1ccc2c(c1)c(CC(=O)O)c(C)n2C(=O)c1ccc(Cl)cc1 [indomethacin] | – |
| relatively strong inhibitory effects | – | CC(C)[C@H](N)CO [valinol, L-valinol] | – |
| significant inhibitory activity | – | CC(C)CN [isobutylamine] | – |
| significant inhibitory activity | – | CC(=O)N[C@@H](CC(C)C)C(=O)O [N-acetyl-leucine, N-acetyl-L-leucine] | – |
| weak but significant inhibitory effects | – | CCCN(CCC)S(=O)(=O)c1ccc(C(=O)O)cc1 [probenecid] | – |
| did not affect | did not affect | N[C@@H](CC(=O)O)C(=O)O [aspartic acid] | – |
| significant inhibitory activity | – | COC(=O)[C@@H](N)CC(C)C [leucine methylester, L-leucine-methylester] | – |
| strongly inhibited | – | CC(C)C[C@H](N)CO [leucinol, L-leucinol] | – |

From US7553642B2, “Branched neutral amino acid transporters acting as single molecule” (Human Cell Systems, Inc., priority 2003, dated 2009)
